pIC50: −log10 of the molar value. Read-outs that look alike come from different tables or passages of the source. Numbered stars: 1 amine (or outer) side, 2 acyl side, 3 side chain; on linkers, the order of the positions; unused ones are H or OH. Square brackets hold non-standard residues; d marks the D form. Peptide text beside a SMILES is read from it. N(2-(2-PhOPh)Et)Gly = O=C(O)CNCCc1ccccc1Oc1ccccc1; Gly(N-3,5-(OMe)2-Ph) = COc1cc(NCC(=O)O)cc(OC)c1; X1 = COc1ccc([C@H](C)N(CC(=O)[*:2])[*:1])cc1; N((CH2)3OiPr)Gly = CC(C)OCCCNCC(=O)O
Columns and labels:
LNCaP-abl spheroids = test system: LNCaP-abl spheroids
Method: To evaluate the impact of the compounds under 3D cell culture conditions thought to be more representative of tumors, we grew LNCaP-abl cells in low attachment plates. The effects on spheroid formation and growth were evaluated following treatment with vehicle, 13, or linear 13 administered at the time of seeding at low cell density in a 384-well plate. In a separate experiment, to test the impact on pre-formed spheroids, cells were treated 5 days after initial seeding. Spheroids from both experiments were grown for 22 days, with compound refreshed on days 5, 9, 13, 16, and 20. […] PrestoBlue was used to measure cell viability on day 22 (Fig. 5b). […] Figure 5c–f depicts spheroid area over time based on size measurements from the images taken throughout the experiment.
Scale bar represents 400 μm. b End point viability measurements taken on day 22 using PrestoBlue. c–f Time course of spheroid areas calculated from images taken throughout the experiment.
LNCaP-abl cells were seeded into 384-well ultra-low attachment plates (Corning), 1000 cells/well. Varying concentrations of compound were added either on the same day as seeding or on day 5. Media was changed every 3–4 days using a Biotek automated media exchanger. Images were taken using an ArraySca VTI (Cellomics) on days 5, 9, 13, 16, 20, and 22. Images were analyzed for spheroid area with the HCS Studio Cellomics Scan Version 6.6.0 (Thermo) software. A final viability measurement was taken on day 22 using PrestoBlue reagent (Thermo).

[1] = test system: Wnt signaling in zebrafish embryos; settings: zebrafish, in vivo
Method: To evaluate the efficacy of 13 in vivo, we utilized a Danio rerio (zebrafish) model. […] To test this, BIO was added to zebrafish embryos at 6 hpf with and without 13 as described in Fig. 6a.
The zebrafish phenotypic assay was conducted using wild-type zebrafish embryos seeded into a 96-well round bottom plate at 4 hpf in 50 µl of Fish Water (60 mg/l sea salt, Instant Ocean, Blacksburg, VA, USA) supplemented with 1 mg per L Methylene Blue (Sigma-Aldrich). The embryos were not dechorionated. At 50% epiboly, roughly 5.5 hpf, 50 µl of 30 µM 13 or Linear 13 was added. About 30 min later at shield stage, 50 µl of 6 nM (3×) BIO was added. The embryos were then visualized for the presence of eyes and imaged at 30 hpf. Zebrafish embryos were randomly assigned to non-blinded treatment groups, none were excluded. Sample size was determined with a power calculation to achieve statistical significance (alpha = 0.05, beta = 0.2) if only 60% of the fish had developed eyes.

LNCaP-95 cells = settings: read-out: IC50 proliferation, LNCaP-95; 5 days of treatment
Method: (§1) To test the effect of 13 in a model of prostate cancer, we used the LNCaP-abl and LNCaP-95 cell lines. These cell lines were derived from androgen-sensitive LNCaP cells, and passaged in androgen-deprived media to mimic the development of castration resistance in patient tumors[54],[55]. We first isolated mRNA from LNCaP-abl and LNCaP-95 cells treated with vehicle, 10 µM 13 and linear 13 for 24 h to check the expression of endogenous Wnt and AR target genes (Fig. 4a). […] AR-V7 is particularly challenging to target as most AR antagonists target the ligand binding domain. […] To check if the changes in Wnt and AR target gene expression translated into effects on growth, the viability of LNCaP-abl and LNCaP-95 cells was determined after 5 days of treatment (Fig. 4b).
(§2) Data are presented as mean and SD (n = 3) of three independent experiments (a) or representative of three independent experiments (b, c).
(§3) LNCaP-abl and LNCaP-95 cells were cultured in indicator free RPMI 1640 media (Life) supplemented with 10% charcoal stripped FBS, 1% pennicillin/streptomycin, and 1% L-Glutamine. […] Both were measured using the ONE-Glo detection kit (Promega) and data is standardized to CellTiter-Fluor (Promega) viability readings to account for potential variations in well to well cell number. […] Total protein concentration in cell lysates were determined using Pierce Rapid Gold BCA Protein Assay Kit (Thermo). […]

LNCaP-abl cells = settings: read-out: IC50 proliferation, LNCaP-abl; 5 days of treatment
Method: as §1, §2, §3

COc1ccc([C@H](C)N2CC(=O)N[C@H](C)C(=O)N(CCc3ccccc3Oc3ccccc3)CC(=O)N(c3cc(OC)cc(OC)c3)CC(=O)N(CCCOC(C)C)CC(=O)N([C@@H](C)c3ccc(OC)cc3)CC2=O)cc1 [Compound 13] (cyclo([dA][N(2-(2-PhOPh)Et)Gly][Gly(N-3,5-(OMe)2-Ph)][N((CH2)3OiPr)Gly][X1][X1]))
Spheroid growth, compound added day 0 (LNCaP-abl spheroids; 0.5 µM): slowed growth
Spheroid formation, compound added day 0 (LNCaP-abl spheroids; 20 µM, 10 µM, 5 µM, 2 µM and 1 µM): prevented spheroid formation
Growth of pre-formed spheroids, treatment started day 5 (LNCaP-abl spheroids; at or above 2 µM): stalled the growth of pre-formed spheroids
Spheroid growth, low concentrations (LNCaP-abl spheroids; between 0.001 µM and 0.1 µM): little effect
pIC50 (LNCaP-abl spheroids; read-out: IC50 spheroid proliferation, treatment started Day 0, PrestoBlue viability on day 22, compound added at seeding): 6.16
pIC50 (LNCaP-abl spheroids; read-out: IC50 spheroid proliferation, treatment started Day 5, PrestoBlue viability on day 22, pre-formed spheroids): 5.87
Harm to embryo development [1]: does not otherwise harm embryo development
pIC50 (LNCaP-95 cells): 6.11
pIC50 (LNCaP-abl cells): 6.71

Reference: paper PMC6199279, “Design of Peptoid-peptide Macrocycles to Inhibit the β-catenin TCF Interaction in Prostate Cancer” (Nature Communications, 2018)
